Experimental data reported in the supplement of paper PMC10307832.

Assays:
Assay in all cases: relative viability (nuclei count vs DMSO), 5 days (fraction); higher = more cells survive
BAM7 + Pemetrexed = compound: CCOC1=CC=CC=C1N=NC2=C(NN(C2=O)C3=NC(=CS3)C4=CC=CC=C4)C [BAM7] + Nc1nc2[nH]cc(CCc3ccc(C(=O)N[C@@H](CCC(=O)O)C(=O)O)cc3)c2c(=O)[nH]1 [Pemetrexed] (partner 0.2 µM)
In short: (§1)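 Dosing by pin tool came one day after lung cancer cell lines were seeded in 1536-well plates, using either one drug or a fixed anchor-drug dose plus five library-drug doses (not always all listed) in √10 steps. After 5 days, nuclei were counted on 4× images. Relative viability is treated-well nuclei count divided by vehicle-well nuclei count, and values are medians of duplicate plates.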

BAM7 + Alpelisib = compound: CCOC1=CC=CC=C1N=NC2=C(NN(C2=O)C3=NC(=CS3)C4=CC=CC=C4)C [BAM7] + Cc1nc(NC(=O)N2CCC[C@H]2C(N)=O)sc1-c1ccnc(C(C)(C)C(F)(F)F)c1 [Alpelisib] (partner 2 µM)
In short: as §1

[1] = compound: CCn1c(-c2nonc2N)nc2c(C#CC(C)(C)O)ncc(OC[C@H]3CCCNC3)c21 + CS(=O)(=O)CCNCc1ccc(-c2ccc3ncnc(Nc4ccc(OCc5cccc(F)c5)c(Cl)c4)c3c2)o1 [Lapatinib] (partner 2 µM)
In short: as §1

[2] = compound: CCn1c(-c2nonc2N)nc2c(C#CC(C)(C)O)ncc(OC[C@H]3CCCNC3)c21 + Nc1ncn([C@H]2C[C@H](O)[C@@H](CO)O2)c(=O)n1 [Decitabine] (partner 2 µM)
In short: as §1

In the case of UMC-11, the relative viability (BAM7 + Pemetrexed; first compound 0.5 µM) is reported as 0.85, the relative viability (BAM7 + Pemetrexed; first compound 5 µM) is reported as 0.912 and the relative viability (BAM7 + Pemetrexed; first compound 15.81 µM) is reported as 0.847. For the same cell line, the relative viability (BAM7 + Pemetrexed; first compound 50 µM) was 0.839, the relative viability (BAM7 + Alpelisib; first compound 0.5 µM) was 1.11 and the relative viability (BAM7 + Alpelisib; first compound 5 µM) was 1.12. It also gave a relative viability (BAM7 + Alpelisib; first compound 15.81 µM) of 0.992, a relative viability (BAM7 + Alpelisib; first compound 50 µM) of 0.989 and a relative viability ([1]; first compound 0.01 µM) of 1.08. The relative viability ([1]; first compound 0.03162 µM) was 0.987, the relative viability ([1]; first compound 0.1 µM) was 0.952 and the relative viability ([1]; first compound 0.3162 µM) was 0.818. It also gave a relative viability ([1]; first compound 1 µM) of 1.08, a relative viability ([2]; first compound 0.01 µM) of 0.533 and a relative viability ([2]; first compound 0.03162 µM) of 0.46. For the same cell line, the relative viability ([2]; first compound 0.1 µM) was 0.6, the relative viability ([2]; first compound 0.3162 µM) was 0.686 and the relative viability ([2]; first compound 1 µM) was 0.607.
